Experimental data: patent US12569452B2, “Ophthalmic compositions comprising F6H8” (NOVALIQ GMBH, priority 2017, dated 2026)

Legend:
Format in all cases: in vivo, human
[1] = system: patients with mild to moderate dry eye disease; experiment: Corneal fluorescein staining, Example 2; settings: 4 times daily, 4 weeks
Experimental: (§1) 48 patients (safety population) are randomized (1:1 ratio) to receive either F6H8 or Hydrabak. One drop of F6H8 (droplet volume=10-11 μl) or Hydrabak is instilled in each eye 4 times daily for 30 days. DED relevant clinical measures are recorded at Visit 1 (day 0, baseline), Visit 2 (15±2 days) and Visit 3 (30±3 days). The primary outcome variable includes Tear film thickness (TFT) as measured with high resolution optical coherence tomography (OCT), while secondary outcome variables comprised Lipid Layer Thickness (LLT) of the tear film (with LipiView Interferometer), Non-Invasive Tear Break Up Time (NITFBUT) with Bon Antares Tear Film Topographer, Dynamic Meibomian Gland Imaging (DMI) with LipiView Interferometer, Blink frequency (with LipiView interferometer), Dry Eye Visual Analogue Scale (VAS), Corneal fluorescein staining, Conjunctival lissamine green staining, Schirmer I test, Tear Film Break Up Time (TFBUT), Ocular Surface Disease Index (OSDI), Adverse Events (AEs) and others.

[2] = system: patients with mild to moderate dry eye disease; experiment: Lipid Layer Thickness (LLT) of the tear film with LipiView Interferometer, Example 2; settings: for Lipid Layer Thickness measured in the morning before first daily dosing (relative change from baseline in %): 4 times daily dosing
Experimental: (§2) The study is conducted to evaluate the influence of 1-perfluorohexyl-octane (F6H8, NovaTears®) on tear film thickness in patients with mild to moderate dry eye disease. Herein the administration of 1-perfluorohexyl-octane is compared to Hydrabak (0.9% sodium chloride, Laboratoires Théa).
as §1

[3] = system: patients with mild to moderate dry eye disease; experiment: Tear film thickness (TFT) by high resolution optical coherence tomography, Example 2
Experimental: as §2, §1

[4] = system: Dry Eye Disease (DED) patients with MGD involvement; experiment: Ocular Surface Disease Index (OSDI), Phase 2 study Example 3; settings: BID, 2, 4 and 8 weeks
Experimental: (§3) A Phase 2, Multi-Center, Randomized, Double-Masked, Saline-Controlled Study to Evaluate the Effect of 1-Perfluorohexyloctane (NOV03; F6H8) at two different dosing regimens on signs and symptoms of Dry Eye Disease (DED). The study was performed at 11 investigational cites in the United States. The study was reviewed and approved by the respective ethics committees and registered at www.clinicaltrials.gov (NCT03333057).
The study is performed to evaluate the safety, efficacy and tolerability of F6H8 at two different dosing regimens compared to saline on signs and symptoms of Dry Eye Disease. […]
The subjects were asked to fill out an OSDI© questionnaire (see for example, Schiffman R M, et al., Arch Ophthalmol. 2000; 118:615-621) consisting of 12 questions, and asked to respond on a scale of 0 to 4, with 0 corresponding to ‘none of the time’ and 4 corresponding to “all of the time”. The questions assess dry eye symptoms experienced by the patient within past week in terms of the following ocular symptoms: sensitivity to light, gritty sensation, pain or sore eyes, blurriness, and poor vision; vision-related function, in terms of problems in: reading, driving at night, working on a computer or bank machine, watching television; and environmental factors or triggers i.e. discomfort during: windy conditions, places with low humidity, and areas with air condition. […]

[5] = system: patients with mild to moderate dry eye disease; experiment: Adverse events, Example 2; settings: 4 times daily for 30 days; all adverse effects mild, low incidence
Experimental: as §1

[6] = system: Dry Eye Disease (DED) patients with MGD involvement; experiment: Eye Dryness Score on Visual Analog Scale (VAS), Phase 2 study Example 3; settings: BID, 2, 4 and 8 weeks
Experimental: as §3
(§4) The study is performed to evaluate the safety, efficacy and tolerability of F6H8 at two different dosing regimens compared to saline on signs and symptoms of Dry Eye Disease.
(§5) Study subjects receive one of the following treatments over a period of 4 visits on day 1, 15, 30 and 60: • (1) F6H8 (NOV03), 4 times daily (QID); • (2) F6H8 (NOV03), 2 times daily (BID); • (3) Saline solution (0.9% sodium chloride solution), 4 times daily (QID); • (4) Saline Solution (0.9% sodium chloride solution), 2 times daily (BID).
(§6) In the BID treatment, study subjects instil bilaterally one drop in each lower eyelid conjunctival fornix two times daily. The instilled drop volume of F6H8 is about 10-12 μl, translating to a single dose of 13.5-16.2 mg (with F6H8 density=1.35 g/ml). […]

[7] = system: Dry Eye Disease (DED) patients with MGD involvement; experiment: Adverse events, Phase 2 study Example 3; settings: daily dose 20-24 μl
Experimental: as §3, §4, §5
In the BID treatment, study subjects instil bilaterally one drop in each lower eyelid conjunctival fornix two times daily. The instilled drop volume of F6H8 is about 10-12 μl, translating to a single dose of 13.5-16.2 mg (with F6H8 density=1.35 g/ml).

[8] = system: Dry Eye Disease (DED) patients with MGD involvement; experiment: Corneal fluorescein staining (NEI scale), Phase 2 study Example 3; settings: vs saline
Experimental: as §3, §4, §5, §6

In the case of `CCCCCCCCC(F)(F)C(F)(F)C(F)(F)C(F)(F)C(F)(F)C(F)(F)F` [F6H8, 1-perfluorohexyloctane], the “Corneal Staining reduction compared with Hydrabak group” value [1] was “tended to be stronger reduced”, the “Lipid Layer Thickness measured in the morning before first daily dosing (relative change from baseline in %)” value ([2]; 2 weeks) was 6.83% and the “Lipid Layer Thickness measured in the morning before first daily dosing (relative change from baseline in %)” value ([2]; 4 weeks) was 4.10%. The “LLT relative change from baseline, estimated least square mean difference F6H8 vs Hydrabak (post hoc MMRM)” value ([2]; values recorded before instillation) was 16.34%, the “Tear Film Thickness after continuous dosing 4-times daily (relative change from baseline in %)” value ([3]; 2 weeks, 10 min) was 8.71% and the “Tear Film Thickness after continuous dosing 4-times daily (relative change from baseline in %)” value ([3]; 2 weeks, 20 min) was 8.57%. The “Tear Film Thickness after continuous dosing 4-times daily (relative change from baseline in %)” value ([3]; 2 weeks, before instillation) was 1.43%, the “Tear Film Thickness after continuous dosing 4-times daily (relative change from baseline in %)” value ([3]; 4 weeks, 10 min) was 9.12% and the “Tear Film Thickness after continuous dosing 4-times daily (relative change from baseline in %)” value ([3]; 4 weeks, 20 min) was 10.35%. For the same compound, the “Tear Film Thickness after continuous dosing 4-times daily (relative change from baseline in %)” value ([3]; 4 weeks, before instillation) was 3.22%, the “Relative change (%) in Tear film thickness from baseline, F6H8 compared with Hydrabak (primary MMRM analysis)” value ([3]; 48 subjects of the safety population) was “significantly higher” and the “Tear film thickness, least squares mean difference F6H8 vs Hydrabak (MMRM, post-hoc)” value ([3]; Visit 1, safety population 48 subjects) was 1.29%. The “Tear film thickness, least squares mean difference F6H8 vs Hydrabak (MMRM, post-hoc)” value ([3]; Visit 2, safety population 48 subjects) was 4.33%, the “Tear film thickness, least squares mean difference F6H8 vs Hydrabak (MMRM, post-hoc)” value ([3]; Visit 3, reached significance) was 6.42% and the “Tear Film Thickness at study start (relative change from baseline in %)” value ([3]; single dose on Visit 1, 10 min after instillation) was 13.39%. The “Tear Film Thickness at study start (relative change from baseline in %)” value ([3]; single dose on Visit 1, 20 min after instillation) was 6.63%, the “Tear Film Thickness at study start (relative change from baseline in %)” value ([3]; single dose on Visit 1, 40 min after instillation) was 4.64% and the “Tear Film Thickness at study start (relative change from baseline in %)” value ([3]; single dose on Visit 1, 60 min after instillation) was 4.03%. The “Tear Film Thickness at study start (relative change from baseline in %)” value ([3]; single dose on Visit 1, 120 min after instillation) was 4.76%, the “Tear Film Thickness at study start (relative change from baseline in %)” value ([3]; single dose on Visit 1, 240 min after instillation) was 3.28% and the “Symptoms of dryness by OSDI score incl. total OSDI score over placebo” value [4] was “highly statistical significant improvement”. The “Safety and tolerability in patients with DED” value [5] was “safe and well tolerated”, the “VAS symptoms of dryness (severity, frequency, awareness of dryness, blurred vision, sensitivity to light) over placebo” value [6] was “highly statistical significant improvement” and the “Adverse effects, 2-times daily schedule (BID)” value [7] was “trend towards less adverse effects”. For the same compound, the “Total corneal fluorescein staining (reduction of ocular surface damage of total corneal region)” value ([8]; BID dosing regimen, 8 weeks) was “met its prespecified primary efficacy endpoint” and the “Reduction of ocular surface damage of central, nasal and temporal corneal region” value ([8]; BID, fluorescein staining NEI scale) was “clear improvements”.
